Laboratory results taken from US7201899B2, “Materials and methods for management of hyperacute rejection in human xenotransplantation” (BresaGen Limited, priority 1994, dated 2007).
Entries after “also recorded” stand apart in the source; their conditions may differ.

How the values were obtained:
[1] = test system: PK-1 and PAE's cells; experiment: Antibody staining and FACS analysis of porcine cells; type: binding; conditions: for inhibition of anti-GAL IgM and/or IgG staining of porcine cells by sugar: anti-GAL antibodies pre-incubated with sugar (0.1 M) at 37° C. for 30 min; for decrease of anti-GAL antibody staining of PAE's (FIG. 1): anti-GAL antibody pre-incubated with sugar, versus anti-GAL antibody alone
Description: C. Antibody Staining and FACS Analysis • 1) Add 2 ml TED to a 75 cm^2 culture flask containing PK-1 or PAE'S, and incubate at room temperature for 10 min. • 2) Add RPMI plus 10% FCS (5 ml) to neutralize trypsin. • 3) Pellet cells by centrifugation (700 g, 5 min, • 4) Wash cells by resuspension and centrifugation in Hanks Buffer (×2). • 5) Pellet cells by centrifugation (700 g, 5 min, 4° C.). • 6) Resuspend cell pellet in Hanks buffer containing purified anti-GAL antibodies, GAL-depleted serum or GAL-depleted IgG and incubate at 4° C. for 60 min. All antibodies were used undiluted, or diluted 1:2 or 1:4 in Hanks buffer. • 7) Add 1 ml of Hanks Buffer, pellet cells by centrifugation and aspirate off supernatant. • 8) Resuspend pellet in FITC-labelled sheep-anti-human IgG Fab2 or IgM Fab2 (Silenus, Hawthorn, Australia) diluted 1:80 in Hanks buffer. • 9) Incubate for 30 min. at 4° C. • 10) Wash three times with Hanks buffer; resuspend pellet from final wash in 0.5 ml Hanks buffer. • 11) Analyze stained samples using a FACScan II (Becton Dickinson) according to the manufacturer's instructions.
The specificity of the anti-GAL antibody binding to porcine cells was determined by examining the ability of sugars of various structures to inhibit antibody binding. In these competition studies the anti-GAL antibodies were pre-incubated with sugar (0.1 M) at 37° C. for 30 min before adding to the cells.

[2] = test system: rat heart; experiment: Langendorf isolated perfused ex vivo heart model; conditions: sugar 10 mM, human plasma to 13%
Description: A. Preparation and Storage of Human Plasma • 1. Centrifuge fresh human blood at 3000 rpm, 10 min., 4° C. to remove red blood cells (RBC's) • 2. Remove the plasma • 3. Centrifuge the plasma at 10,000 rpm, 10 min. 4° C. to remove any remaining cells; decant the plasma • 4. Add 2.5 ml of 0.1M EDTA pH 7.30 for every 50 ml of plasma • 5. Store 50 ml aliquots at −70° C. • 6. For heat-inactivated plasma, heat at 56° C. for 60 min., then centrifuge at 2,500 rpm for 10 min.
Plasma prepared from different blood packs is thawed at 37° C., pooled and filtered (100 μm steel mesh, 8.0 μm and 4.5 μm Millipore filters, sequentially). Cacl2 is added at 0.58 mg/ml plasma, and the plasma kept on ice until ready for perfusion.
1. Anesthetize rats with Nembutal (1 μl sodium pentobarbitone (60 mg/ml)/g body weight) and mice with ether.
2. Surgically expose the heart and inject heparin (Porcine Mucous, 10,000 U/ml) into the femoral vein (rats: 0.3 ml injected).
3. Remove heart and place in ice-cold Krebs-Henseleit buffer containing heparin (0.2 ml/50 ml buffer. • Krebs-Henseleit buffer: • 119 mM NaCl • 25 mM NaHCO3 • 4.6 mM KCl • 1.2 mM MgSO4.7H2O • 1.3 mM CaCl2.2H2O • 1.2 mM KH2PO4 • 11 mM glucose • 0.25% (v/v) BSA • Adjust to pH 7.4; store at 4° C.
4. Connect aorta to the canula of the Langendorf perfusion apparatus and tie firmly. The apparatus was assembled by the present inventors according to experimental requirements of the Langendorf heart model as described in Doring & Dehnerrt, The Isolated Perfused Heart According to Langendorf, Bionesstechnik-Verlag March GmbH, D7806, West Germany.
5. Perfuse with Krebs-Henseleit buffer (made fresh each day), which is gassed continuously with carbogen (95% O2, 5% CO2) at a pressure of 100 mmHg, at 37° C.
6. Attach a hook, connected to a transducer (Physiograph MK-111-S, Narco Bio-Systems) to the apex of the heart.
7. Perfuse heart for 20 min. with Krebs-Henseleit buffer to enable heart to stabilize (reservoir volume: 270 ml).
8. […]

Row | SMILES | inhibition of anti-GAL IgM and/or IgG staining of porcine cells by sugar [1] | decrease of anti-GAL antibody staining of PAE's (FIG. 1) [1] | cardiac function of rat heart perfused with human plasma plus sugar [2] | cardiac function of rat heart perfused with human plasma plus sugar ([2]; listed as lactose)
1 | OC[C@H]1O[C@@H](O[C@H]2[C@H](O)[C@@H](O)[C@@H](O)O[C@@H]2CO)[C@H](O)[C@@H](O)[C@H]1O [Lactose, 4-O-β-D.galactopyranosyl-α-D-glucose] | not inhibited | not affected significantly | does-not prolong heart survival | the heart essentially stopped beating within minutes. The same result was obtained
2 | O=C[C@H](O)[C@@H](O)[C@H](O)[C@H](O)CO[C@H]1O[C@H](CO)[C@H](O)[C@H](O)[C@H]1O [Melibiose, 6-O-α-D-galactopyranosyl-D-glucose] | inhibited | approximately 10 fold less | the heart was able to maintain a strong beat; also recorded: prolongs heart survival and output | 
